Molecules are shown by their SMILES. Converted amounts (≈) assume the structure as drawn.

In one data set the test system is wild type cowpox virus. In words: microbe, parasite or virus in culture. Type of data set: cell-based. The following applies: read-out: Cowpox EC50.
In another data set the test system is Vaccinia virus (NYCBH). In words: microbe, parasite or virus in culture. The data set is classed as cell-based. The following applies: Orthopoxvirus vaccinia, Vero, 72 h, read-out: Vaccinia EC50.
The subject of another data set is camelpox. In words: microbe, parasite or virus in culture. The data set is classed as cell-based. The settings on record: read-out: Camelpox EC50.
For data set [1], the system named is monkeypox virus (Zaire (V79-1-005-scab)). In words: microbe, parasite or virus in culture. Type of data set: cell-based. The settings on record: read-out: Monkeypox EC50.

Usually EC50 stands for the midpoint of the concentration-response curve. One may read the solubility as the concentration that dissolves in the medium under given conditions. As for `O=C(NN1C(=O)[C@@H]2C3C=CC(C4CC43)[C@@H]2C1=O)c1ccc(C(F)(F)F)cc1` (some centres unmarked) [Example 1, 4-Trifluoromethyl-N-(3,3a,4,4a,5,5a,6,6a,- octahydro-1,3-dioxo-4,6-ethenocycloprop[f]isoindol-2(1H)-yl)-benzamide], the EC50 (with wild type cowpox virus; in the data set with Vaccinia virus (NYCBH); with camelpox; in data set [1]) was under 500 nM throughout. The solubility was 68.7 µg/mL (≈ 183 µM) in the data set “physchem” (aqueous with cosolvent or surfactant or cyclodextrin, ST-246 Solubility); 60800 µg/mL (≈ 162000 µM) in “physchem” (organic solvent or mixture, ST-246 Solubility); 60000 µg/mL (≈ 159000 µM) in the data set “physchem” (organic solvent or mixture, Solubility in organic solvents); 7 µg/mL (≈ 18.6 µM) in the data set “physchem” (pH 6.8, aqueous buffer, ST-246 Solubility); 37.5 µg/mL (≈ 99.6 µM) in the data set “physchem” (simulated gastric fluid, ST-246 Solubility); 26 µg/mL (≈ 69.1 µM) in the data set “physchem” (water, ST-246 Solubility).

In the case of `O=C(NN1C(=O)[C@@H]2C3C=CC(C4CC43)[C@@H]2C1=O)c1ccc(Br)cc1` (some centres unmarked) [Example 3, 4-Bromo-N-(3,3a,4,4a,5,5a,6,6a,- octahydro-1,3-dioxo-4,6-ethenocycloprop[f]isoindol-2(1H)-yl)-benzamide], the EC50 in the data set with wild type cowpox virus was 500 to 1000 nM; with Vaccinia virus (NYCBH) it was under 500 nM; in the data set on camelpox it was under 500 nM; in data set [1], under 500 nM.
